Experimental data from patent publication US12274731B1, “Polybasic antimalarial agents and methods of use thereof” (priority 2018, dated 2025).
Read-outs that look alike come from different tables or passages of the source.

Assays:
[1] = system: Plasmodium falciparum (Dd2 and Nf54); assay: P. falciparum growth assay / dose-response in human erythrocyte culture (parasitemia after 72 h, acridine orange, FACS); format: cell-based; conditions: for parasite growth (endpoint parasitemia, percentage of control): 72-hour treatment, equal concentrations in the media; for IC50: P. falciparum in human erythrocytes, about 72 hours post compound addition
Description: FIG. 4A-FIG. 4D. […] DHHC8 transcript codes for five consecutive lie-residues. Levels of each transcript are normalized to total ribosome levels and represented as a ratio of transcript levels under Ile starvation (−Ile) over the control conditions (+Ile). […] Western blot analysis of Ile starved (−Ile), and control (+Ile) sample are normalized to PfHAD1 (PF3D7_1033400) levels. HA-tagged P. falciparum Pelo protein was CRISPR/Cas9 engineered and detected using mouse HA-antibody. The molecular weight of each protein is indicated. […] (D) P. falciparum growth assay in the presence of different compounds and amino acid polymers. Data represent endpoint parasitemia after 72-hour treatment with the indicated compound. Results are normalized to non-treated cultures (control) and presented as a percentage of control samples. Average value from three biological replicates is reported with standard deviation.
The lack of P. falciparum taxis during invasion of host cells, alterations in cytoadhesive properties of infected erythrocytes and previously shown invasion-blocking effects of heparin prompted testing whether poly-lysine repeats in P. falciparum membrane proteins contribute to the overall efficiency of parasite invasion of host erythrocytes.
For FIG. 21-FIG. 25, the general procedure for the drug assays included a total sample volume of 200 μl, every concentration was performed in triplicate, hematocrit was 2%, and starting parasitemia was 1%. The starting concentration of drug was 100 μg/ml and the serial dilution was made from the starting concentration. The end concentration was 0.39 μg/ml). The control represents growth of the parasite culture without added drug. All samples were subjected to Acridine orange staining and the FACS analysis was done on 96 well plates. FlowJo was used to calculate parasitemia.
Dose-response experiments were performed in triplicate with mixed culture of P. falciparum (1.0%-1.2% starting parasitemia). Parasitemias (percentage of total erythrocytes infected with parasites) were measured approximately 72 hours post compound addition by nucleic acid staining of infected red blood cells with 0.8 mg/ml acridine orange in PBS. Inhibition data were fit to a sigmoidal dose-response curve was done using Graphpad Prism 5.0.

uninfected human cells = assay: Binding to uninfected human cells (fluorescence microscopy); format: cell-based
Procedure: Here, the same procedure as for above (FIG. 19) was performed for the cell culture, except for the incubation volume was 1 ml in PBS and the images were taken on a lab microscope.

[2] = system: mCherry labelled P. berghei; assay: Treatment of mice infected with mCherry labelled P. berghei; format: in vivo; conditions: 4 doses, over 7 days of infection
Description: Intraperitoneal treatment of mice results in the reduction of parasitemia over 2 days (see e.g., FIG. 25).

human erythrocytes = assay: Hemolysis in erythrocyte culture; format: cell-based; conditions: at IC50
[3] = Structure preservation of crystalline PLL; format: physicochemical; conditions: 37° C.

| Substance | activity against Plasmodium / malaria [1] | parasite growth (endpoint parasitemia, percentage of control) [1] | IC50 [1] | binding to other human cells (uninfected human cells) (uninfected human cells) | also measured |
| --- | --- | --- | --- | --- | --- |
| 10-L-lysines (SEQ ID NO: 4): Poly (L) lysine of 10 residues in length, from Alamanda polymers (KKKKKKKKKK; Synthetic polybasic peptide) | no activity | – | – | – | – |
| heparin | – | inhibiting parasite growth | 12 µg/mL | – | – |
| poly-L-lysine | – | efficient reduction of parasite growth | 9 µg/mL | do not detectably bind | parasitemia [2]: reduces parasitemia; hemolysis (human erythrocytes): without hemolysis; structure preservation [3]: preserves structure |
| poly-L-ornithine | – | efficient reduction of parasite growth | – | do not detectably bind | – |
| poly-glutamate | – | did not affect the growth of parasites | – | – | – |
| poly-ε-L-lysine | not shown to be effective | – | – | – | activity against Plasmodium / malaria ([1]; listed as Epsilon poly-lysine): did not appear to have activity |
